# Laboratory results: BindingDB's records for doi:10.1016/j.bioorg.2017.01.006 (Jaipur National University, 2017)
# Molecular target: Gag-Pol polyprotein (Human immunodeficiency virus type 1 group M subtype B (isolate HXB2), UniProt P04585)
# Test: RT Assay
# Details: 37 °C
# Procedure: To a lysis buffer (20 μl), 4-6 ng recombinant HIV-1-RT was added in separate reaction tubes. Lysis buffer without HIV-1-RT was used as a negative control. Standards and test compound RT inhibitor (10 μg) were diluted with lysis buffer. This mixture was incubated for 1 h at 37 °C. For the number of micro plate modules to be used, enough foil bags were opened and micro plate modules were put into the frame in the correct orientation. The above samples were transferred to wells of microplate module. After addition it was covered with cover foil and incubated at 37 °C for 1 h. Solution was removed and rinsed five times with 250 μl of washing buffer per well for 30 s to each well. Then washing buffer was removed carefully. 200 μl of anti-DIG-POD working dilution was added to individual well and covered with cover foil and incubated at 37 °C for 1 h. Anti-DIG-POD working dilution solution was completely removed. Microplate module were washed five times for 30 s with washing buffer 250 μl and removed. 200 μl of ABTS substrate solution was added to individual well and incubated between 15 °C and 25 °C till (15−30 min) green color was obtained.
row,SMILES,IC50
1,"CC1=C(C(=O)NC(=O)CN2C(=O)C(=O)c3ccccc32)C(c2ccc(Cl)cc2)NC(=O)N1 (stereo not given) [4-(4-Chlorophenyl)-N-(2-(2,3-dioxoindolin-1-yl)acetyl)-6-methyl-2-oxo-1,2,3,4-tetrahydro pyrimidine-5-carboxamide (9h)]",> 100 nM
2,"CC1=C(C(=O)NC(=O)CN2C(=O)C(=O)c3ccccc32)C(C)NC(=O)N1 (stereo not given) [N-(2-(2,3-Dioxoindolin-1-yl)acetyl)-4,6-dimethyl-2-oxo-1,2,3,4-tetrahydropyrimidine-5-carboxamide (9c)]",64 nM
3,"CCC1NC(=O)NC(C)=C1C(=O)NC(=O)CN1C(=O)C(=O)c2ccccc21 (stereo not given) [N-(2-(2,3-Dioxoindolin-1-yl)acetyl)-4-ethyl-6-methyl-2-oxo-1,2,3,4-tetrahydropyrimidine-5-carboxamide (9d)]",67 nM

# More lines, now with the values ahead:
row,IC50,SMILES
1,> 100 nM,"CCCC1NC(=O)NC(C)=C1C(=O)NC(=O)CN1C(=O)C(=O)c2ccccc21 (stereo not given) [N-(2-(2,3-Dioxoindolin-1-yl)acetyl)-6-methyl-2-oxo-4-propyl-1,2,3,4-tetrahydropyrimidine-5-carboxamide (9e)]"
2,68 nM,Cc1cc(/C=C/C#N)cc(C)c1Nc1ccnc(Nc2ccc(C#N)cc2)n1 [Rilpivirine]
